# Molecular target: T1, RING1B-BMI1 (Homo sapiens, UniProt Q99496)
# T1 sequence (Q99496 1-336): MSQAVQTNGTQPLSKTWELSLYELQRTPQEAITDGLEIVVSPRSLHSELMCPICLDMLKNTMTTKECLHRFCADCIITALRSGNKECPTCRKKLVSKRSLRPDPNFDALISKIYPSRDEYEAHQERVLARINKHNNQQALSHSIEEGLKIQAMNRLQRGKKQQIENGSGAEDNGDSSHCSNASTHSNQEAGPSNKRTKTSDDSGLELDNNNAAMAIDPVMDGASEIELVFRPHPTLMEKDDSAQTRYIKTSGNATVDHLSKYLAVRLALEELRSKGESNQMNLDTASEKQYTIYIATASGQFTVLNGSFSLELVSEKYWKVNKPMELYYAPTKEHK
# T1 sequence (P35226 1-326 partner): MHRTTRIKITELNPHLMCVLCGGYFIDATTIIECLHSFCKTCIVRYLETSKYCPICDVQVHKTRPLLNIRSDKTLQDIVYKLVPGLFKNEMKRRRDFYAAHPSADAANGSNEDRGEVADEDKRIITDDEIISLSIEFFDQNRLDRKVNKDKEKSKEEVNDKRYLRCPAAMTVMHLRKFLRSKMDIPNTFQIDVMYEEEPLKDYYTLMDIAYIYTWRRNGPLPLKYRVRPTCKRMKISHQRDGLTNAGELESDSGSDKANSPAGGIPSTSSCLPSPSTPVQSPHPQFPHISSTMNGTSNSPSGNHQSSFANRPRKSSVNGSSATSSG
# Assay: KD classes of Table A (direct binding to Ring1B-Bmi1)
# Conditions: class given in Table A
# Protocol: Experiments were conducted during development of embodiments herein to develop small molecule inhibitors of PRC1 by targeting the Ring1B-BMI1 E3 ligase. These compounds bind directly to Ring1B-Bmi1 with low-micromolar affinity and inhibit PRC1 in vitro and in cells. […] Experiments were conducted during development of embodiments herein to test COMPOUND 1 in leukemia stem cell models represented by TEX cells (Ref. 22; herein incorporated by reference in its entirety) and M9-ENL1 cells (Ref. 23; herein incorporated by reference in its entirety). […] In some embodiments, COMPOUND 1 and COMPOUND 1 analogs are find use as agents in targeting leukemia and other cancer stem cells.
# The compounds listed in Table A have been synthesized and/or tested for activity in inhibiting activity of PRC1 complex, and are within the scope herein.
row,SMILES,Kd
1,CC(C)c1c(-c2cc(F)cc3[nH]ccc23)[nH]c(C(=O)O)c1-c1cc(C(=O)NCC2CC2)cc2[nH]ccc12 [compound 199],< 20 µM
2,C#CCCCCC(=O)NCCc1c[nH]c2cc(F)cc(-c3[nH]c(C(=O)O)c(-c4c(Cl)ccc5[nH]ccc45)c3C(C)C)c12 [compound 67],< 20 µM
3,CC(C)CCOc1cccc(-c2ccc(C(=O)O)[nH]2)c1 [compound 132],> 100 µM
4,O=C(O)c1ccc(-c2ccccc2OCc2ccccc2)[nH]1 [compound 138],> 100 µM
5,CC(C)c1c(-c2cc(F)cc3[nH]ccc23)[nH]c(C(=O)O)c1-c1cc(OC2COC2)cc2[nH]ccc12 [compound 236],< 20 µM
6,Nc1cccc(-c2ccc(C(=O)O)[nH]2)c1 [compound 125],> 100 µM
7,O=C(O)c1ccc(-c2cccc(Oc3ccccc3)c2)[nH]1 [compound 139],> 100 µM
8,CC(C)c1c(-c2cccc3[nH]ccc23)c(C(=O)O)n2c1-c1cc(F)cc3ccn(c13)[C@@H](C)C2 [compound 271],< 20 µM
9,COc1cc(-c2c(C(=O)O)[nH]c(-c3cc(F)cc4[nH]ccc34)c2C(C)C)c2ccn(CCNC(=O)Cc3cscn3)c2c1 [compound 178],< 20 µM
10,CC(C)c1c(-c2cc(F)cc3[nH]ccc23)[nH]c(C(=O)O)c1-c1c(F)cnc2[nH]ccc12 [compound 246],< 20 µM
11,CC(C)c1c(-c2cccc3[nH]ccc23)c(C(=O)O)n2c1-c1cc(F)cc3ccn(c13)CC2 [compound 270],< 20 µM
12,O=C(O)c1ccc(-c2cccc(OCc3ccccc3)c2)[nH]1 [compound 135],> 100 µM
13,CC(C)c1c(-c2cccc3[nH]ccc23)cn(CC(=O)O)c1-c1cccc2[nH]ccc12 [compound 76],< 20 µM
14,COc1cccc(-c2ccc(C(=O)O)[nH]2)c1 [compound 141],> 100 µM
15,CC(C)c1c(-c2cc(F)cc3[nH]ccc23)[nH]c(C(=O)O)c1-c1ccnc2[nH]c(-c3nccs3)cc12 [compound 233],< 20 µM
16,"COc1cc(-c2c(C(=O)O)[nH]c(-c3cc(F)cc4[nH]ccc34)c2C(C)C)c2ccn(CCNC(=O)c3nccs3)c2c1 [compound 177, 5-(6-fluoro-1H-indol-4-yl)-4-isopropyl-3-(6-methoxy-1-(2-(thiazole-2-carboxamido)ethyl)-1H-indol-4-yl)-1H-pyrrole-2-carboxylic acid]",< 20 µM
17,O=C(O)c1ccc(-c2ccccc2)[nH]1 [compound 144],> 100 µM
18,COCCC(=O)NCCc1c[nH]c2cc(F)cc(-c3[nH]c(C(=O)O)c(-c4c(Cl)ccc5[nH]ccc45)c3C(C)C)c12 [compound 72],< 20 µM
19,COC(=O)c1ccc(-c2ccccc2)[nH]1 [compound 158],> 100 µM
20,CC(C)c1c(-c2cc(F)cc3[nH]ccc23)[nH]c(C(=O)O)c1-c1c(Cl)ccc2[nH]c(C(=O)O)cc12 [compound 53],< 20 µM
21,CC(C)c1c(-c2cc(F)cc3[nH]ccc23)[nH]c(C(=O)O)c1-c1ccnc2[nH]c(-c3cccc(Cl)c3)cc12 [compound 253],< 20 µM
22,O=C(O)c1ccc(-c2cccc3c2ccn3C2CC2)[nH]1 [compound 119],> 100 µM
23,CC(C)c1c(-c2cc(F)cc3[nH]ccc23)[nH]c(CCS(N)(=O)=O)c1-c1cccc2[nH]ccc12 [compound 221],< 20 µM
24,O=C(O)c1ccc(-c2ccc(-c3ccccc3)cc2)s1 [compound 159],> 100 µM
25,C#CCCCCC(=O)NCCn1ccc2c(-c3c(C(=O)O)[nH]c(-c4cc(F)cc5[nH]ccc45)c3C(C)C)cccc21 [compound 66],< 20 µM

# Results, then the molecule that gave them:
row,Kd,SMILES
1,< 20 µM,CC(C)c1c(-c2cccc3[nH]c(CO)cc23)[nH]c(C(=O)O)c1-c1c(Cl)ccc2[nH]ccc12 [compound 52]
2,< 20 µM,CC(C)c1c(-c2cc(F)cc3[nH]ccc23)[nH]c(C(=O)O)c1-c1cccc2[nH]c(C(=O)Nc3ccccc3)cc12 [compound 260]
3,50 to 100 µM,CCc1c(-c2cccc3[nH]ncc23)[nH]c(C(=O)O)c1-c1ccc(OC)cc1Cl [compound 91]
4,20 to 50 µM,CCc1c(-c2cccc3[nH]ccc23)[nH]c(C(=O)O)c1-c1cccc(OC)c1 [compound 85]
5,> 100 µM,CCc1c(-c2c(OC)cccc2OC)[nH]c(C(=O)O)c1-c1ccc(OC)cc1Cl [compound 104]
6,< 20 µM,COc1cc(Cl)c(-c2c(C(=O)O)[nH]c(-c3cccc4[nH]ccc34)c2C(C)C)cc1[N+](=O)[O-] [compound 3]
7,< 20 µM,CC(C)c1c(-c2cc(F)cc3cc[nH]c23)[nH]c(C(=O)O)c1-c1c(Cl)ccc2[nH]ccc12 [compound 185]
8,50 to 100 µM,CCc1c(-c2cccc3[nH]ccc23)[nH]c(C(=O)O)c1-c1ccccc1-c1ccccc1 [compound 96]
9,< 20 µM,"CC(c1c(-c2cccc3[nH]ccc23)[nH]c(C(=O)O)c1-c1cccc2[nH]ccc12)C(F)F (centres unmarked) [compound 30, 4-(1,1-Difluoropropan-2-yl)-3,5-di(1H-indol-4-yl)-1H-pyrrole-2-carboxylic acid]"
10,50 to 100 µM,CCc1c(-c2cccc3[nH]ccc23)[nH]c(C(=O)O)c1-c1ccc(C)cc1 [compound 100]
11,< 20 µM,COCc1ccc2[nH]ccc2c1-c1c(C(=O)O)[nH]c(-c2cc(F)cc3[nH]ccc23)c1C(C)C [compound 237]
12,< 20 µM,CC(C)c1c(-c2cc(F)cc3[nH]ccc23)[nH]c(C(=O)O)c1-c1cccc2[nH]cc(CCO)c12 [compound 187]
13,< 20 µM,Cc1cc(-c2[nH]c(C(=O)O)c(-c3c(Cl)ccc4[nH]ccc34)c2C(C)C)c2cc[nH]c2c1 [compound 8]
14,< 20 µM,CC(C)c1c(-c2cccc3c2ccn3N)[nH]c(C(=O)O)c1-c1cccc2[nH]ccc12 [compound 214]
15,< 20 µM,CC(C)c1c(-c2cc(F)cc3[nH]ccc23)[nH]c(C(=O)O)c1-c1ccc(Oc2nccs2)cc1 [compound 62]
16,< 20 µM,CC(C)c1c(-c2cc(F)cc3[nH]ccc23)[nH]c(C(=O)O)c1-c1cccc2ncoc12 [compound 205]
17,< 20 µM,Cc1c[nH]c2cccc(-c3[nH]c(C(=O)O)c(-c4c(Cl)ccc5[nH]ccc45)c3C(C)C)c12 [compound 26]
18,< 20 µM,CC(C)c1c(-c2cccc3[nH]ccc23)c(C(=O)O)n2c1-c1cc(F)cc3ccn(c13)C(=O)C2 [compound 274]
19,> 100 µM,O=C(O)c1[nH]c(-c2cccc3[nH]ccc23)c2c1CCCC2 [compound 115]

row,Kd,SMILES
1,20 to 50 µM,CCc1c(-c2cccc3c2ccn3C)[nH]c(C(=O)O)c1-c1ccccc1Cl [compound 88]
2,20 to 50 µM,CCc1c(-c2cccc3[nH]ccc23)[nH]c(C(=O)O)c1-c1cccc(F)c1 [compound 86]
3,< 20 µM,CCc1c(-c2cccc3[nH]ccc23)[nH]c(C(=O)O)c1-c1ccc(OC)cc1Br [compound 15]
4,< 20 µM,CC(C)c1c(-c2cc(C(F)(F)F)cc3[nH]ccc23)[nH]c(C(=O)O)c1-c1c(Cl)ccc2[nH]ccc12 [compound 10]
5,< 20 µM,Cc1ccc2[nH]ccc2c1-c1[nH]c(C(=O)O)c(-c2c(Cl)ccc3[nH]ccc23)c1C(C)C [compound 7]
6,< 20 µM,CC(C)c1c(-c2cc(F)cc3[nH]ccc23)[nH]c(C(=O)O)c1-c1cccc2[nH]c(-c3nccs3)cc12 [compound 224]
7,< 20 µM,CC(C)c1c(-c2cc(F)cc3[nH]ccc23)[nH]c(C(=O)O)c1-c1cccc2ncccc12 [compound 268]
8,< 20 µM,CC(C)c1c(-c2cc(F)cc3[nH]ccc23)[nH]c(CC(=O)O)c1-c1cccc2[nH]ccc12 [compound 215]
9,> 100 µM,CCc1c(C(=O)O)[nH]c(-c2cccc3c2ccn3C)c1CC [compound 111]
10,< 20 µM,COc1cc(-c2c(C(=O)O)[nH]c(-c3cc(F)cc4[nH]ccc34)c2C2CCCC2)c2cc[nH]c2c1 [compound 173]
11,< 20 µM,CC(C)c1c(-c2cc(F)cc3[nH]ccc23)[nH]c(C(=O)O)c1-c1cccc2[nH]c3ccccc3c12 [compound 210]
12,< 20 µM,CC(C)c1c(-c2cccc3[nH]ccc23)[nH]c(C(=O)O)c1-c1ccccc1Cl [compound 17]
13,< 20 µM,CC(CF)c1c(-c2cccc3[nH]ccc23)[nH]c(C(=O)O)c1-c1cccc2[nH]ccc12 (centres unmarked) [compound 32]
14,< 20 µM,CC(C)c1c(-c2cc(F)cc3[nH]ccc23)[nH]c(C(=O)O)c1-c1cc(F)cc2[nH]ccc12 [compound 36]
15,< 20 µM,CC(C)c1c(-c2cc(F)cc3[nH]ccc23)[nH]c(C(=O)O)c1-c1cc(Cl)cc2[nH]ccc12 [compound 41]
16,< 20 µM,CCCC(=O)NCCn1ccc2c(-c3c(C(=O)O)[nH]c(-c4cc(F)cc5[nH]ccc45)c3C(C)C)cc(OC)cc21 [compound 180]
17,< 20 µM,CCNc1ccc2[nH]ccc2c1-c1c(C(=O)O)[nH]c(-c2cc(F)cc3[nH]ccc23)c1C(C)C [compound 240]
18,< 20 µM,CC(C)c1c(-c2cc(O)cc3[nH]ccc23)[nH]c(C(=O)O)c1-c1c(Cl)ccc2[nH]ccc12 [compound 12]

# From patent US12466813B2, “PRC1 inhibitors and methods of treatment therewith” (The Regents of the University of Michigan, priority 2018, dated 2025)
